Results as given in patent US20120214775A1, “Pharmaceutical Salts of 3-O-(3',3'-Dimethylsuccinyl) Betulinic Acid” (priority 2004, published 2012).
Converted amounts (≈) assume the structure as drawn. “Also recorded” adds a separate entry of the source. Where a name gives a salt, the structure may show the parent alone. Read-outs that look alike come from different tables or passages of the source. Blank lines part the entries; values can stand above or below the molecule they belong to.

Legend:
[1] = Intravenous administration of DSB in rats (reference for bioavailability); type: in vivo; settings: rat, plasma, dose 10.4 mg/kg, read-out: AUCINF after intravenous administration
Experimental: Blood samples were collected by cardiac puncture (n=2 rats/formulation/time point) at the following times: 0.25, 0.5, 1, 2, 4, 6, 12, and 24 h. Bioavailabilities of the oral formulations were calculated as the ratio of the oral dose-adjusted AUCINF assuming proportionality of the dose adjustments to the dose adjusted AUCINF reported after intravenous administration (AUCINF=63.3 μg h/mL) from a study of DSB in rats.

[2] = Water solubility (summary statement); type: physicochemical
[3] = system: HIV-1 replication in H9 lymphocyte cells; settings: cited from earlier work; for T.I.: acutely infected H9 lymphocytes; for therapeutic index (T.I.) / EC50: H9 lymphocyte cells
[4] = physchem; settings: thermodynamic from solid, Equilibrium solubility
[5] = system: HIV-1 NL4-3; assay: In vivo anti-HIV efficacy in the SCID-hu Thy/Liv mouse model of HIV infection; settings: for implant p24: untreated 440; for antiviral activity against NL4-3 (in words): twice-daily oral gavage at 100 and 150 mg/kg/day, SCID-hu Thy/Liv mice
[6] = 25° C.
[7] = physchem; settings: 25 °C
[8] = Equilibrium solubility in selected solvents; settings: for solubility thermodynamic at 7 days: organic solvent or mixture, equilibration 7 days
[9] = highest dosage level (150 mg/kg/day), twice-daily oral gavage
[10] = once-daily oral gavage at 100 mg/kg/day

AUC(0-inf) [1]: 63300 ng·h/mL | solubility [2]: ~100 µg/mL (≈ 171 µM) | solubility thermodynamic at 3 days ([4]; saline or isotonic): 1500 µg/mL (≈ 2560 µM) | solubility thermodynamic at 3 days ([4]; water): 35.1 µg/mL (≈ 60 µM)
Compound: C=C(C)[C@H]1CC[C@]2(C(=O)O)CC[C@@]3(C)[C@H](CC[C@H]4[C@@]5(C)CC[C@H](OC(=O)CC(C)(C)C(=O)O)C(C)(C)[C@H]5CC[C@]43C)[C@H]12 [DSB, 3-O-(3′,3′-dimethylsuccinyl) betulinic acid]
T.I. [3]: more than 970,000

visual solubility ([6]; basic and neutral conditions): visibly soluble | visual solubility ([6]; strongly acid solutions): visually insoluble | solubility ([7]; pH 9.461, aqueous buffer): 7540 µg/mL | solubility ([7]; pH 10.691, aqueous buffer): 7460 µg/mL | Equilibrium solubility ([8]; Deionized Water, equilibration 3 days): >18000 µg/mL | solubility thermodynamic at 7 days ([8]; thermodynamic from solid, Equilibrium solubility, Ethanol, solid may have precipitated on transfer): 25000 µg/mL | solubility thermodynamic at 7 days ([8]; thermodynamic from solid, Equilibrium solubility, Methanol): 37000 µg/mL | solubility thermodynamic at 7 days ([8]; thermodynamic from solid, Equilibrium solubility, PEG 400, compound may have precipitated on removal from water bath): 5120 µg/mL | solubility thermodynamic at 7 days ([8]; thermodynamic from solid, Equilibrium solubility, Propylene glycol): > 255000 µg/mL | solubility thermodynamic at 3 days ([8]; saline or isotonic, thermodynamic from solid, Equilibrium solubility, PSS (physiological salt solution), equilibration 3 days): 80.2 µg/mL | solubility thermodynamic at 3 days ([8]; saline or isotonic, thermodynamic from solid, Equilibrium solubility, PSS + 0.1% DMSO, equilibration 3 days): 108 µg/mL | solubility thermodynamic at 3 days ([8]; saline or isotonic, thermodynamic from solid, Equilibrium solubility, PSS + 1% DMSO, equilibration 3 days): 108 µg/mL | solubility thermodynamic at 3 days ([8]; water, thermodynamic from solid, Equilibrium solubility, Deionized Water, equilibration 3 days): > 18000 µg/mL | solubility thermodynamic at 4 days ([8]; water, thermodynamic from solid, Equilibrium solubility, Deionized Water, equilibration 4 days): > 7000 µg/mL
Compound: C=C(C)[C@@H]1CC[C@]2(C(=O)O)CC[C@]3(C)[C@H](CC[C@@H]4[C@@]5(C)CC[C@H](OC(=O)CC(C)(C)C(=O)O)C(C)(C)[C@@H]5CC[C@]43C)[C@@H]12 [DSB-(NmG)2, di-(N-methyl-D-glucamine) salt of 3-O-(3′,3′-dimethylsuccinyl) betulinic acid]
implant p24 ([5]; 100 mg/kg/day, twice-daily oral gavage): 69 pg p24 per 10^6 cells | HIV-1 RNA reduction versus untreated mice [5, 9]: 97% | implant p24 [5, 9]: 14 pg p24 per 10^6 cells | MHC-I expression on CD4+CD8+ thymocytes ([5]; highest dosage level (150 mg/kg/day), untreated 530): 250 mean fluorescence intensity | p24 reduction versus untreated mice ([5]; highest dosage level (150 mg/kg/day, started at 300), twice-daily oral gavage, 22 days, Thy/Liv implant): 99% | antiviral activity against NL4-3 (in words) [5]: potent, dose-dependent antiviral activity; also recorded: potent in vivo inhibitor of HIV-1 replication | antiviral activity against NL4-3 (in words) ([5]; listed as DSG-(NmG)2): potent in vivo inhibitor of HIV-1 replication | solubility thermodynamic at 3 days ([8]; aqueous buffer, thermodynamic from solid, Equilibrium solubility, 1% DMSO in HERG Buffer, equilibration 3 days): 87.1 µg/mL | solubility thermodynamic at 3 days ([8]; aqueous buffer, thermodynamic from solid, Equilibrium solubility, HERG Buffer, equilibration 3 days): 17.8 µg/mL

Compound: Nc1ccn([C@@H]2CS[C@H](CO)O2)c(=O)n1 [Group 3TC, lamivudine, reference compound]
HIV-1 RNA reduction versus untreated mice [5, 10]: 96% | thymocyte viability (live thymocytes) [5, 10]: 71% | p24 reduction versus untreated mice ([5]; once-daily oral gavage at 100 mg/kg/day (positive control)): 97% | implant p24 [5, 10]: 35 pg p24 per 10^6 cells

Compound: CC(C)C1CCC2(C(=O)O)CCC3(C)C(CCC4C5(C)CCC(OC(=O)CC(C)(C)C(=O)O)C(C)(C)C5CCC43C)C12 (stereo not shown) [dihydrobetulinic acid analog]
T.I. [3]: more than 400,000

Compound: CC(C)[C@@H]1CC[C@]2(C(=O)O)CC[C@]3(C)C(CCC4[C@@]5(C)CC[C@H](O)C(C)(C)C5CC[C@]43C)C12 (stereo partly shown) [dihydrobetulinic acid]
therapeutic index (T.I.) [3]: 14 | EC50 ([3]; unit inferred, read-out: EC50, anti-HIV activity): 0.9 µM

Compound: CC(=O)[C@@H]1CC[C@]2(C(=O)O)CC[C@]3(C)[C@H](CC[C@@H]4[C@@]5(C)CC[C@H](O)C(C)(C)[C@@H]5CC[C@]43C)[C@@H]12 [platanic acid]
therapeutic index (T.I.) [3]: 14 | EC50 ([3]; read-out: EC50, inhibitory activity against HIV-1 replication): 6.5 µM
